pEC50: −log10 of the molar value.

What all share (assay type): cell-based
The test system of one series is HCV genotype 1a replicon. In words: Anti-HCV-1a replicon activity (luciferase, Bright-Glo). The following applies: Hepatitis C virus, Huh-7, 72 h, read-out: EC50 against HCV-1a replicon. How it is done: (§1) 1) Preparation of compounds: adding 75 μl of the compounds of the present invention at the above concentration gradient to a 96-well plate using POD810 system, with each concentration for each compound in duplicate;
(§2) 2) Preparation of cells: collecting HCV 1b replicon cells in logarithmic phase and resuspending them in DMEM complete medium, and then adding 75 μl of the cell suspension to each well of the above 96-well plate (8×10^3 cells/well); at the same time, establishing zero percent effect (ZPE) control group and hundred percent effect (HPE) control group, with ZPE group using complete culture medium containing 0.5% DMSO instead of the compound, and the HPE group merely containing DMEM medium in the wells.
(§3) 3) Cell culture: placing the 96-well plate in a 37° C., 5% CO2 incubator and culturing for 3 days.
(§4) 5) Anti-HCV replicon activity assay: adding luciferase luminescence substrate Bright-Glo to each well, and detecting luminescence signal values using the multimode microplate reader within 5 min, with the raw data (RLU) being used for calculation of the anti-HCV activities of the compounds;
(§5) 6) Data processing: processing the raw data using the following formula into the inhibition percentage of the compound against HCV replicon (Inhibition %) and the percentage of cell viability (Viability %): Inhibition %=(RLUZPE−RLUCPD)/(RLUZPE−RLUHPE)×100 Viability %=(RFUCPD−RFUHPE)/(RFUZPE−RFUHPE)×100 wherein CPD: the fluorescence signal value of the well of the compound; ZPE (zero percent effect): the fluorescence signal value of the zero percent effect control; HPE (hundred percent effect): the fluorescence signal value of the hundred percent effect control.
(§6) The Inhibition % and Viability % were introduced into GraphPad Prism software for data processing, respectively, to obtain the half effective concentration EC50 of the compound against HCV replicon and the half cytotoxic concentration CC50.
(§7) HCV 1a replicon cells, i.e., Huh7 cell line stably transfected with HCV genotype 1a replicon (provided by WuXi AppTec (Shanghai) Co., Ltd.) were used as the experimental cells. As described above for the HCV 1b replicon cell system, the HCV genotype 1a replicon cell systems were similarly prepared.
(§8) The anti-HCV-1a activities of the compounds of the present invention were tested according to the method for testing the anti-HCV-1b replicon activity in Experimental Example 1.
(In general: Replicon systems follow genome replication, usually without infectious particles.)

Another series relates to HCV genotype 1b replicon. Nature of the series: Anti-HCV-1b replicon activity (luciferase, Bright-Glo). The following applies: Hepatitis C virus, Huh-7, 72 h, read-out: EC50 against HCV-1b replicon. On the procedure: (§9) Each of the compounds prepared in the above examples of the present invention was dissolved at 10 mM in DMSO, then diluted to 50 μM with DMEM complete medium, then diluted to 20 nM with complete medium containing 0.5% DMSO, and then serially diluted by 3-fold, to obtain a total of 10 concentrations.
(§10) HCV 1b replicon cells, i.e., Huh7 cell line stably transfected with HCV genotype 1b replicon, were provided by WuXi AppTec (Shanghai) Co., Ltd. Specific preparation methods of Huh7 lb replicon cell system can be found in Lohmann V, Korner F, Koch J, Herian U, Theilmann L, Bartenschlager R., Replication of subgenomic hepatitis C virus RNAs in a hepatoma cell line, Science 285 (5424): 110-113 (1999).
as §1, §2, §3, §4, §5, §6

Series [1] can be described thus: Cell viability test (CellTiter-Fluor) in HCV 1a replicon cells. The following applies: human, Huh7 cells stably transfected with HCV genotype 1a replicon; HCV 1a replicon Huh7 cells, 3 days culture; read-out: CC50 (half cytotoxic concentration). How it is done:
(§11) 4) Cell viability test: after adding detection reagent for fluorescence assay of cell growth to each well and culturing the cells in a 37° C., 5% CO2 incubator for one hour, detecting the fluorescence signal values using the multimode microplate reader, with the raw data (RFU) being used for calculation of the cytotoxicity of the compounds;
as §5, §6, §7, §8

Series [2] can be described thus: Cell viability test (CellTiter-Fluor) in HCV 1b replicon cells. The following applies: human, Huh7 cells stably transfected with HCV genotype 1b replicon; HCV 1b replicon Huh7 cells, 3 days culture; read-out: CC50 (half cytotoxic concentration). How it is done: as §9, §10, §1, §2, §3, §11, §5, §6

Take `COC(=O)N[C@H](C(=O)N1CCC[C@H]1c1ncc(-c2ccc3c(c2)C(F)(F)C(F)(F)c2cc(-c4cnc([C@@H]5CC6(CN5C(=O)[C@@H](NC(=O)OC)C(C)C)OCCO6)[nH]4)ccc2-3)[nH]1)C(C)C` [Example 14, Methyl N-((2S)-1-((S)-2-(5-(7-((S)-2-(7-((S)-2-((methoxycarbonyl)amino)-3-methylbutanoyl)-1,4-dioxa-7-azaspiro[4.4]nonan-8-yl)-1H-imidazol-5-yl)-9,9,10,10-tetrafluoro-9,10-dihydrophenanthren-2-yl)-1H-imidazol-2-yl)pyrrolidin-1-yl)-3-methyl-1-oxobutan-2-yl)carbamate]: the pEC50 – broadly, the negative decadic logarithm of the EC50, by convention in mol/L – in the series on HCV genotype 1a replicon is 9.82; with HCV genotype 1b replicon, 11.22. Besides, the CC50 at 3 days in series [1] and in series [2] was greater than 10 nM in each case.

`COC(=O)N[C@H](C(=O)N1CC2(C[C@H]1c1ncc(-c3ccc4c(c3)C(F)(F)C(F)(F)c3cc(-c5cnc([C@@H]6CC7(CN6C(=O)[C@@H](NC(=O)OC)C(C)C)OCCO7)[nH]5)ccc3-4)[nH]1)OCCO2)C(C)C` [Example 17, Dimethyl ((2S,2′S)-((2S,2′S)-2,2′-(5,5′-(9,9,10,10-tetrafluoro-9,10-dihydrophenanthren-2,7-diyl)bis(1H-imidazol-5,2-diyl))bis(1,4-dioxa-7-azaspiro[4.4]nonan-7,8-diyl))bis(3-methyl-1-oxobutan-2,1-diyl))dicarbamate]: the figures for the pEC50 in the series on HCV genotype 1a replicon and in the series on HCV genotype 1b replicon were 9.76 and 11.15, respectively. For the same molecule, the CC50 at 3 days in series [1] and in series [2] was greater than 10 nM each time.

Source of the values: patent publication US9512108B2, “9,9,10,10-Tetrafluoro-9,10-dihydrophenanthrene hepatitis C virus inhibitor and application thereof” (NANJING SANHOME PHARMACEUTICAL CO., LTD., priority 2013, dated 2016).
